According to patent US20070066561A1, “Drug delivery and targeting with vitamin B12 conjugates” (New York University, priority 2002, published 2007):
Converted amounts (≈) assume the structure as drawn.

How the values were obtained:
[1] = Bioactivity of cobalamin conjugates (test not described)
transcobalamin II (TCII) = molecular target: T1, transcobalamin II (TCII) (Homo sapiens, UniProt P20062); test: Binding to transcobalamin II; conditions: compared with control vitamin B12; listed as p-iodohippuric acid TFP ester conjugated to the e-cyanocobalamin via the 4,7,10-
T1 sequence (P20062 19-427): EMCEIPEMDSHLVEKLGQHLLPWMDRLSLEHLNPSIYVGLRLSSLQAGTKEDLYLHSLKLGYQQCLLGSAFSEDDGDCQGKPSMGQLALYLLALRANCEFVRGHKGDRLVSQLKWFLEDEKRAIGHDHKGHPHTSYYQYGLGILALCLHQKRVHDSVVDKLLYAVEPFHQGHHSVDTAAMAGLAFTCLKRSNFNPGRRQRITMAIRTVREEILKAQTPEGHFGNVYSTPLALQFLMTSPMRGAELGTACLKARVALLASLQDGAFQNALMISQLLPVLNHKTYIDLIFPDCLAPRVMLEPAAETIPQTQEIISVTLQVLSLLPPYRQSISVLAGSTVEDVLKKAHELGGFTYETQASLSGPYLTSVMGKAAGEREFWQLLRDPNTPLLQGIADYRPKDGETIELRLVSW
Method: This conjugate may be used as a standard for future B12 derivatives because of its higher rate of binding to TCII, which is required for efficient delivery to the appropriate receptors.
The p-iodohippuric acid TFP ester conjugated to the e-cyanocobalamin via the 4,7,10-trioxa-1,13-tridecanediamine linker was assessed for binding to transcobalamin II (TCII).

K562 Erythroleukemia = test: Cytotoxicity against human cell lines grown in culture, MTT assay; format: cell-based; conditions: 72 hr continuous incubation, 5% human serum, relative cell growth by MTT, means of duplicate experiments
Excerpt: (§1) The data below are means of duplicate experiments with similar results.

KARPAS-291 Lymphoma = test: as above; format: cell-based; conditions: 72 hr continuous incubation, 5% human serum, relative cell growth by MTT, means of duplicate experiments
Excerpt: as §1

[2] = test system: HL60 Promyelocytic leukemia; test: as above; format: cell-based; conditions: 72 hr continuous incubation, 5% human serum, relative cell growth by MTT, means of duplicate experiments
Excerpt: as §1

[3] = cited from earlier work
[4] = between pH about 4 and 7; cited from earlier work

Q: With “B12-P-Hippuric acid-4,7,10-trioxa-1,13-tridecanediamine e-cyanocobalamin monocarboxylic acid conjugate [B12 P-Hippuric acid]” as the molecule, how does the Bioactivity [1] read?
A: bioactive

Q: What about the “Binding to TCII” value (transcobalamin II (TCII)) of the same molecule?
A: substantially as great as for control vitamin B12

Q: For “p-iodohippuryl-1,12-diaminododecane conjugated to cyanocobalamin-e-carboxylate”, which Bioactivity [1] is on record?
A: most bioactive conjugate studied

Q: Which results are given for cyanocobalamin [B12]?
A: Cytotoxicity, K562 Erythroleukemia (K562 Erythroleukemia): 250 ng/mL; Cytotoxicity, KARPAS-291 Lymphoma (KARPAS-291 Lymphoma): 294 ng/mL; Cytotoxicity, HL60 Promyelocytic leukemia [2]: 152 ng/mL; Solubility in acetone, ether, and chloroform [3]: insoluble; Solubility in lower alcohols and phenol [3]: moderately soluble; Solubility in water ([3]; room temperature): 12 mg/mL; Stability in aqueous solutions [4]: quite stable

Q: What does the source list for CC(=O)O[C@H]1C(=O)[C@@]2(C)[C@H]([C@H](OC(=O)c3ccccc3)[C@]3(O)C[C@H](OC(=O)[C@H](O)[C@@H](NC(=O)c4ccccc4)c4ccccc4)C(C)=C1C3(C)C)[C@]1(OC(C)=O)CO[C@@H]1C[C@@H]2O [Taxol, Paclitaxel]?
A: IC50 (K562 Erythroleukemia; K562): 4 ng/mL (≈ 4.68 nM); IC50 (KARPAS-291 Lymphoma): 2 ng/mL (≈ 2.34 nM); IC50 ([2]; HL-60): 0.15 ng/mL (≈ 0.176 nM)
